A word on the IC50: it is the concentration at which inhibition is half-maximal.

Our source for the IC50 values is patent US20220033397A1, “PHARMACEUTICAL COMPOUNDS AND THEIR USE AS INHIBITORS OF UBIQUITIN SPECIFIC PROTEASE 19 (USP19)” (ALMAC DISCOVERY LIMITED, priority 2018, published 2022).

The target of this test is T1, Full-length USP19 (Homo sapiens, UniProt O94966).
T1 construct: Full-length USP19 was purchased from Boston Biochem (E-576); purchased Boston Biochem E-576
T1 sequence (O94966 1-1318): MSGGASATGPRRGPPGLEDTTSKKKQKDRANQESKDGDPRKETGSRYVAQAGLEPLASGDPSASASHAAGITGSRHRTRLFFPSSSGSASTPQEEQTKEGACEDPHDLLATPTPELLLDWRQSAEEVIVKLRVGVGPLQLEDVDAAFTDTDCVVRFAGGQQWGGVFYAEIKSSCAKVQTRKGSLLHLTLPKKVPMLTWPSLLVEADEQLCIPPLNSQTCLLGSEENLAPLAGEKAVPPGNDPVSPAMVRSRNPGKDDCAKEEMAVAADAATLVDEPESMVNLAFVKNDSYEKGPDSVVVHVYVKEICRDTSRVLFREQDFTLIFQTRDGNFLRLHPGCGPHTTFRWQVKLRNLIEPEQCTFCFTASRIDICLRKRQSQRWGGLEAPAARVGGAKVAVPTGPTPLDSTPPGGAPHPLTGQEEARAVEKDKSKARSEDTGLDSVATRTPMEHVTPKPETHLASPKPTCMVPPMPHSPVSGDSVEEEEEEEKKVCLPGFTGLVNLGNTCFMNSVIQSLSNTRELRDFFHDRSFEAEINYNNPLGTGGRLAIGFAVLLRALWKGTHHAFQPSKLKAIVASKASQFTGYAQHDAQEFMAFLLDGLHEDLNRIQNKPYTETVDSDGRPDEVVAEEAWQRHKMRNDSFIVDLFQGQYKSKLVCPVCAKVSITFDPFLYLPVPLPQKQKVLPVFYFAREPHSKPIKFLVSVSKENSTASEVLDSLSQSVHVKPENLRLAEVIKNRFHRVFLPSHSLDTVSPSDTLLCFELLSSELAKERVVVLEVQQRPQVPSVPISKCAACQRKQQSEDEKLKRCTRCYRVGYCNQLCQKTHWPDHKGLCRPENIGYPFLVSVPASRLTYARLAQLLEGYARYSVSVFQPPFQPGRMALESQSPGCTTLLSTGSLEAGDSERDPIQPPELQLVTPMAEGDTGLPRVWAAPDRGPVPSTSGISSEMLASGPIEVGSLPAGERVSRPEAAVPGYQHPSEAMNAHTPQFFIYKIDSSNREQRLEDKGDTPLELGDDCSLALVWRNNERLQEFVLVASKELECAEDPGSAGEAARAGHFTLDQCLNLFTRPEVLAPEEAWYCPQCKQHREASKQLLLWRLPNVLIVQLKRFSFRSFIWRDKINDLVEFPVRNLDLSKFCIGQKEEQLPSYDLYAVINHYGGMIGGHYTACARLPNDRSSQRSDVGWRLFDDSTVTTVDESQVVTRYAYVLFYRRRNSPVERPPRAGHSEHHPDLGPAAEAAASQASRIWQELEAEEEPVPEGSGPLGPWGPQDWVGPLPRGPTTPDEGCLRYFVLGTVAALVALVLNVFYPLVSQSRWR
The test is described as follows: USP19 fluorescence polarisation (FP) homogeneous assay with Ubiquitin-Lys-TAMRA substrate. As to conditions: 2.5 nM USP19, 30 min pre-incubation, average of at least two duplicate experiments. It is filed as biochemical. Summed up:
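Full-length USP19 preincubated 30 min at RT with inhibitor (200 μM to 2 μM series, 8–18 points) before adding 500 nM Ubiquitin-Lys-TAMRA substrate.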
A general note: Polarisation of emitted light reports the rotation of a fluorescent probe.

`COCC1COCCN1C(=O)N1CCC(O)(Cn2cnc(-c3ccccc3)cc2=O)C2(CCCC2)C1` (centres unmarked) [Example 231, 3-((10-Hydroxy-7-(3-(methoxymethyl)morpholine-4-carbonyl)-7-azaspiro[4.5]decan-10-yl)methyl)-6-phenylpyrimidin-4(3H)-one]: the IC50 is 5 to 50 µM. The same measure for `O=C(N1CCC(O)(Cn2cnc(-c3ccccc3)cc2=O)C2(CCCC2)C1)N1CCCC1c1ccncc1` (centres unmarked) [Example 249, 3-((10-Hydroxy-7-(2-(pyridin-4-yl)pyrrolidine-1-carbonyl)-7-azaspiro[4.5]decan-10-yl)methyl)-6-phenylpyrimidin-4(3H)-one]: 0.5 to 5 µM; for `C[C@H](CC1CCCCC1)C(=O)N1CCC(O)(CN2CC(Cc3ccccc3)CC2=O)C2(CCCC2)C1` (stereo partly drawn) [Example 41, 4-Benzyl-1-((7-((R)-3-cyclohexyl-2-methylpropanoyl)-10-hydroxy-7-azaspiro[4.5]decan-10-yl)methyl)pyrrolidin-2-one]: 0.5 to 5 µM; for `N=S1(=O)CCN(C(=O)N2CC[C@@](O)(Cn3cnc(-c4ccccc4)cc3=O)C3(CCCC3)C2)C(c2ccccc2)C1` (stereo partly drawn) [Example 334, 3-(((10S)-10-Hydroxy-7-(1-imino-1-oxido-3-phenyl-1λ^6-thiomorpholine-4-carbonyl)-7-azaspiro[4.5]decan-10-yl)methyl)-6-phenylpyrimidin-4(3H)-one]: less than 0.5 µM. The same measure for `C[C@H](CC(F)(F)F)C(=O)N1CCC(O)(CN2Cc3ncccc3C2=O)C2(CCCC2)C1` (stereo partly drawn) [Example 104, 6-((10-Hydroxy-7-((R)-4,4,4-trifluoro-2-methylbutanoyl)-7-azaspiro[4.5]decan-10-yl)methyl)-6,7-dihydro-5H-pyrrolo[3,4-b]pyridin-5-one]: 50 to 250 µM; for `O=C(NCc1ccccc1)N1CCC(O)(Cn2ccc(-c3ccccc3)cc2=O)C2(CCCC2)C1` (centres unmarked) [Example 192, N-Benzyl-10-hydroxy-10-((2-oxo-4-phenylpyridin-1(2H)-yl)methyl)-7-azaspiro[4.5]decane-7-carboxamide]: less than 0.5 µM. For the compound `C[C@H](CC1CCCCC1)C(=O)N1CCC(O)(CN2CCN(C(=O)OC(C)(C)C)CC2=O)C2(CCCC2)C1` (stereo partly drawn) [Example 38, tert-Butyl 4-((7-((R)-3-cyclohexyl-2-methylpropanoyl)-10-hydroxy-7-azaspiro[4.5]decan-10-yl)methyl)-3-oxopiperazine-1-carboxylate], the IC50 is less than 0.5 µM.

As for `C[C@H](CC1CCCCC1)C(=O)N1CCC(O)(Cn2ccc3ccncc3c2=O)C2(CCCC2)C1` (stereo partly drawn) [Example 137, 2-((7-((R)-3-Cyclohexyl-2-methylpropanoyl)-10-hydroxy-7-azaspiro[4.5]decan-10-yl)methyl)-2,7-naphthyridin-1(2H)-one], the IC50 is less than 0.5 µM. The same measure for `O=C1Cn2ccnc2CN1CC1(O)CCN(C(=O)N2CCNC[C@H]2c2ccccc2)CC12CCCC2` (stereo partly drawn) [Example 119, 7-((10-Hydroxy-7-((R)-2-phenylpiperazine-1-carbonyl)-7-azaspiro[4.5]decan-10-yl)methyl)-7,8-dihydroimidazo[1,2-a]pyrazin-6(5H)-one]: 0.5 to 5 µM. The same measure for `O=C(N1CC2CC2C1)N1CCC(O)(Cn2cnc(-c3ccccc3)cc2=O)C2(CCCC2)C1` (centres unmarked) [Example 209, 3-((7-(3-Azabicyclo[3.1.0]hexane-3-carbonyl)-10-hydroxy-7-azaspiro[4.5]decan-10-yl)methyl)-6-phenylpyrimidin-4(3H)-one]: 50 to 250 µM. `Cc1ccccc1-c1cc(=O)n(C[C@]2(O)CCN(C(=O)N3CCNC[C@H]3c3ccccc3)CC23CCCC3)cn1` [Example 340, 3-(((S)-10-Hydroxy-7-((R)-2-phenylpiperazine-1-carbonyl)-7-azaspiro[4.5]decan-10-yl)methyl)-6-(o-tolyl)pyrimidin-4(3H)-one]: the half-maximal inhibitory concentration (IC50) is less than 0.5 µM.

Regarding `O=C(NCc1cccc(F)c1)N1CC[C@@](O)(Cn2cnc(-c3ccccc3)cc2=O)C2(CCCC2)C1` [Example 216, (S)—N-(3-Fluorobenzyl)-10-hydroxy-10-((6-oxo-4-phenylpyrimidin-1(6H)-yl)methyl)-7-azaspiro[4.5]decane-7-carboxamide], the IC50 is less than 0.5 µM. On to `C[C@H](CC(F)(F)F)C(=O)N1CCC(O)(Cn2cnc3c(cnn3C)c2=O)C2(CCCC2)C1` (stereo partly drawn) [Example 180, 5-((10-Hydroxy-7-((R)-4,4,4-trifluoro-2-methylbutanoyl)-7-azaspiro[4.5]decan-10-yl)methyl)-1-methyl-1,5-dihydro-4H-pyrazolo[3,4-d]pyrimidin-4-one], for which the IC50 lay within 5 to 50 µM. `C[C@H](CC1CCCCC1)C(=O)N1CCC(O)(Cn2cnc3c(cnn3-c3ccccc3)c2=O)C2(CCCC2)C1` (stereo partly drawn) [Example 176, 5-((7-((R)-3-Cyclohexyl-2-methylpropanoyl)-10-hydroxy-7-azaspiro[4.5]decan-10-yl)methyl)-1-phenyl-1,5-dihydro-4H-pyrazolo[3,4-d]pyrimidin-4-one]: the IC50 was less than 0.5 µM.

On to `C[C@H](CC1CCCCC1)C(=O)N1CCC(O)(Cn2cc(-c3ccn[nH]3)ncc2=O)C(C)(C)C1` (stereo partly drawn) [Example 17, 1-((1-((R)-3-Cyclohexyl-2-methylpropanoyl)-4-hydroxy-3,3-dimethylpiperidin-4-yl)methyl)-5-(1H-pyrazol-5-yl)pyrazin-2(1H)-one], for which the IC50 is 0.5 to 5 µM. Turning to `C[C@H](CC(F)(F)F)C(=O)N1CCC(O)(Cn2cnc3c(cnn3C3CC3)c2=O)C2(CCCC2)C1` (stereo partly drawn) [Example 181, 1-Cyclopropyl-5-((10-hydroxy-7-((R)-4,4,4-trifluoro-2-methylbutanoyl)-7-azaspiro[4.5]decan-10-yl)methyl)-1,5-dihydro-4H-pyrazolo[3,4-d]pyrimidin-4-one], the IC50 lay within 5 to 50 µM. With `O=C(N1CCC(O)(Cn2cnc(-c3ccccc3)cc2=O)C2(CCCC2)C1)N1CCC12CCOC2` (centres unmarked) [Example 236, 3-((10-Hydroxy-7-(6-oxa-1-azaspiro[3.4]octane-1-carbonyl)-7-azaspiro[4.5]decan-10-yl)methyl)-6-phenylpyrimidin-4(3H)-one], the IC50 fell in the range of 5 to 50 µM.

Take `CN(C)C(=O)c1cn(CC2(O)CCN(C(=O)NCc3ccccc3)CC23CCCC3)c(=O)cc1-c1ccccc1` (centres unmarked) [Example 85, N-Benzyl-10-((5-(dimethylcarbamoyl)-2-oxo-4-phenylpyridin-1(2H)-yl)methyl)-10-hydroxy-7-azaspiro[4.5]decane-7-carboxamide]: the IC50 was less than 0.5 µM.

In the case of `CSc1cn(CC2(O)CCN(C(=O)[C@H](C)CC3CCCCC3)CC23CCCC3)c(=O)cc1Cl` (stereo partly drawn) [Example 76, 4-Chloro-1-((7-((R)-3-cyclohexyl-2-methylpropanoyl)-10-hydroxy-7-azaspiro[4.5]decan-10-yl)methyl)-5-(methylthio)pyridin-2(1H)-one], the IC50 was less than 0.5 µM. For the compound `C[C@H](CC(F)(F)F)C(=O)N1CCC(O)(Cn2ccc3ncncc3c2=O)C2(CCCC2)C1` (stereo partly drawn) [Example 159, 6-((10-Hydroxy-7-((R)-4,4,4-trifluoro-2-methylbutanoyl)-7-azaspiro[4.5]decan-10-yl)methyl)pyrido[4,3-d]pyrimidin-5(6H)-one], the IC50 is 5 to 50 µM. The same measure for `O=C(NCc1c(F)cccc1F)N1CC[C@@](O)(Cn2cnc(-c3ccccc3)cc2=O)C2(CCCC2)C1` [Example 302, (S)—N-(2,6-Difluorobenzyl)-10-hydroxy-10-((6-oxo-4-phenylpyrimidin-1(6H)-yl)methyl)-7-azaspiro[4.5]decane-7-carboxamide]: less than 0.5 µM; for `O=C(NCc1ccccc1)N1CCC(O)(Cn2cnc(-c3ccncc3)cc2=O)C2(CCCC2)C1` (centres unmarked) [Example 201, N-Benzyl-10-hydroxy-10-((6-oxo-4-(pyridin-4-yl)pyrimidin-1(6H)-yl)methyl)-7-azaspiro[4.5]decane-7-carboxamide]: 0.5 to 5 µM; for `O=C(N1CCC(O)(Cn2cnc(-c3ccccc3)cc2=O)C2(CCCC2)C1)N1CCCC1C1CC1` (centres unmarked) [Example 264, 3-((7-(2-Cyclopropylpyrrolidine-1-carbonyl)-10-hydroxy-7-azaspiro[4.5]decan-10-yl)methyl)-6-phenylpyrimidin-4(3H)-one]: 0.5 to 5 µM.
